Assay results as given in patent US8877820B2, “Compositions comprising a retinoid and an NFkB-inhibitor and their methods of use” (Johnson & Johnson Consumer Companies, Inc., priority 2010, dated 2014).

Test system: NF-κB gene reporter in FB293 cells
Assay: NFκB-INHIBITION TEST (luciferase gene reporter, TNFα-stimulated FB293 cells)
Assay type: cell-based, human
Conditions: for Percent NF-kB Inhibition: FB293 cells, TNFα 100 ng/ml, 24 h; for NF-κB inhibition (in words): summary of Table 2
Description: The NFκB-INHIBITION TEST is conducted in the following manner. FB293 cells, a stable transfected human epithelial cell line containing the gene reporter for NF-κB are used. They may be obtained from, e.g., Panomics (Fremont, Calif.). FB293 are plated at a density of 5×10^4 cells/mL in a suitable medium, e.g., Dulbecco's modified Eagle's medium (DMEM) supplemented with 10% fetal bovine serum (Invitrogen, San Diego, Calif.). The FB293 cells are stimulated with 100 ng/mL of Tumor Necrosis Factor-α (TNFα, available from Sigma-Aldrich of St Louis, Mo.) in the presence of the test sample. Separately, a control sample is tested wherein no test sample is applied. Following a 24-hour incubation at 37° C. with 5% CO2, cells are lysed with 40 μl of reporter lysis buffer (Promega, Madison, Wis.). A 20-μl aliquot of the lysate is assayed using a luciferase assay kit (Promega) and counted for 10 s in a Lmax luminometer (Molecular Devices, Sunnyvale, Calif.) with the data represented as the relative light unit/second. Percent NFκB Inhibition of the test sample is calculated as: NFκB Inhibition=[1−(Lsample/Lcontrol)]*100 where Lsample is the luminescence of the sample and Lcontrol is the luminescence of the control.
The NFκB-INHIBITION TEST described above was performed on test samples of Bay 11-7082 (Sigma-Aldrich, St. Louis, Mo.), Tetrahydrocurcuminoids CG (Sabinsa Corporation, Piscataway, N.J.), as well as various concentrations of 4-hexylresorcinol. The results are shown in Table 2, in which NF-κB Gene Reporter Activation (Luminescence, L) is reported for the test samples and a control sample. Percent NF-κB Inhibition is also reported.

SMILES | Percent NF-kB Inhibition (25 μM) [%] | NF-κB inhibition (in words) | Percent NF-kB Inhibition (1 μg/ml) [%] | Percent NF-kB Inhibition (5 μg/ml) [%] | Percent NF-kB Inhibition (10 μg/ml) [%] | Percent NF-kB Inhibition (50 μg/ml) [%]
Cc1ccc(S(=O)(=O)/C=C/C#N)cc1 [Bay 11-7082, (E)-3-(4-methylphenylsulfonyl)-2-propenenitrile] | 89.5 | strong NF-κB inhibition | – | – | – | –
CCCCCCc1ccc(O)cc1O [4-Hexylresorcinol, 4-Hexyl resorcinol] | – | strong NF-κB inhibition | 1.9 | 50.9 | 72.9 | 91.4
